Measured values: ChEMBL document CHEMBL5649166, “RIP3 induces apoptosis independent of pronecrotic kinase activity” (Mol Cell, 2014)

Tests used:
[1] = target: T1, Beta-adrenergic receptor kinase 1 (Homo sapiens) (UniProt P25098); assay: Inhibition of human GRK2 using casein as substrate at 1 uM in presence of 32P-ATP by Hotspot assay relative to control; values are per cent of control
T1 sequence (whole entry): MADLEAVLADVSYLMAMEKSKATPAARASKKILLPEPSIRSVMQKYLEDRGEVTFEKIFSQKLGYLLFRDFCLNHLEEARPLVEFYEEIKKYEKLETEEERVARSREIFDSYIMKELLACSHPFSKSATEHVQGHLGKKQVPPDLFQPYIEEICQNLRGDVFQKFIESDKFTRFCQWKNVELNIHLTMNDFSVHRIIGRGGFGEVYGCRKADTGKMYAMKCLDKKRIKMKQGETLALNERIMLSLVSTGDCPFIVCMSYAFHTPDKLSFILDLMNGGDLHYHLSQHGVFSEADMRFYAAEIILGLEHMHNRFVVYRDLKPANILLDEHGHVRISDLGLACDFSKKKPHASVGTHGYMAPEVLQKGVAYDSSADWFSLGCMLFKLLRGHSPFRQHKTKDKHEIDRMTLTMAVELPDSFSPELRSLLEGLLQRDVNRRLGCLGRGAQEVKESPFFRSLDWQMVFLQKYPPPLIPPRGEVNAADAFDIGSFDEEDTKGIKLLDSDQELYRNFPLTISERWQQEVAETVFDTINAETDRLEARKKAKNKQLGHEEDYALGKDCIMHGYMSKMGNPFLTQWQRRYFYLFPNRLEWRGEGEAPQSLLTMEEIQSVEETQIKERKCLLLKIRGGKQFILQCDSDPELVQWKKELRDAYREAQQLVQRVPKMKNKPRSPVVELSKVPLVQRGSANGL

[2] = target: T2, Tyrosine-protein kinase JAK3 (Homo sapiens) (UniProt P52333); assay: Inhibition of human JAK3 using GGEEEEYFELVKKKK as substrate at 1 uM in presence of 32P-ATP by Hotspot assay relative to control; values are per cent of control
T2 sequence (whole entry): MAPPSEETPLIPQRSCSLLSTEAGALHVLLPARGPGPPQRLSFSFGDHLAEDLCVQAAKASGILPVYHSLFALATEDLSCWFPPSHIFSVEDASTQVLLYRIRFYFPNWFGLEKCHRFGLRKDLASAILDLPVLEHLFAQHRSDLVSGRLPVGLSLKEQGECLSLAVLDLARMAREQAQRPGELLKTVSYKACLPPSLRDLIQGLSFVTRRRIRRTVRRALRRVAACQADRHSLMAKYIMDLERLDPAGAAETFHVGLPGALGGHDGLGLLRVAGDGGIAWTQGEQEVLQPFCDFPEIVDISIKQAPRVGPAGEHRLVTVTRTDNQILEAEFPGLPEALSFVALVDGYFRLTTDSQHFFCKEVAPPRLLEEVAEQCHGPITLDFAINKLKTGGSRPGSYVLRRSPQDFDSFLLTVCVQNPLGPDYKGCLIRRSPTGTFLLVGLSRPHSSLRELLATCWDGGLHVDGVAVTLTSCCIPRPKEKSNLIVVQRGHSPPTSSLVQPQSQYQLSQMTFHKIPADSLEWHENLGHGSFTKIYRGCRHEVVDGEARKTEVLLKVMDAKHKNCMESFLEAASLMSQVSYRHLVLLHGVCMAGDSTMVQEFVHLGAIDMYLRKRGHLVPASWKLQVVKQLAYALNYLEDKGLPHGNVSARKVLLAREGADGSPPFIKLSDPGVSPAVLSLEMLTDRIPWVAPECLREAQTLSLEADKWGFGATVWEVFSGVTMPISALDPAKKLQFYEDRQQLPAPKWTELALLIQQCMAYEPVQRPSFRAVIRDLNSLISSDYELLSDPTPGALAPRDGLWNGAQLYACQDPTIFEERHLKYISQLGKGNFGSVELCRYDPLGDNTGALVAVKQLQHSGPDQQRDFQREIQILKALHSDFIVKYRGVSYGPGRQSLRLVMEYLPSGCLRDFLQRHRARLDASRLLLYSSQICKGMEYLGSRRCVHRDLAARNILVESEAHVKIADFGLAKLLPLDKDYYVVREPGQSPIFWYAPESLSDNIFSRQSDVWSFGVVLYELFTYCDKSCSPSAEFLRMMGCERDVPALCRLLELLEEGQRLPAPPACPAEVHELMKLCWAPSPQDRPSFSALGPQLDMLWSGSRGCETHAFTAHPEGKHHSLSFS

[3] = target: Tyrosine-protein kinase Fyn (Homo sapiens) (UniProt P06241); assay: Inhibition of human FYN using poly[Glu:Tyr] (4:1) as substrate at 1 uM in presence of 32P-ATP by Hotspot assay relative to control; values are per cent of control
Tyrosine-protein kinase Fyn (Homo sapiens), sequence (P06241 2-537 limits assumed): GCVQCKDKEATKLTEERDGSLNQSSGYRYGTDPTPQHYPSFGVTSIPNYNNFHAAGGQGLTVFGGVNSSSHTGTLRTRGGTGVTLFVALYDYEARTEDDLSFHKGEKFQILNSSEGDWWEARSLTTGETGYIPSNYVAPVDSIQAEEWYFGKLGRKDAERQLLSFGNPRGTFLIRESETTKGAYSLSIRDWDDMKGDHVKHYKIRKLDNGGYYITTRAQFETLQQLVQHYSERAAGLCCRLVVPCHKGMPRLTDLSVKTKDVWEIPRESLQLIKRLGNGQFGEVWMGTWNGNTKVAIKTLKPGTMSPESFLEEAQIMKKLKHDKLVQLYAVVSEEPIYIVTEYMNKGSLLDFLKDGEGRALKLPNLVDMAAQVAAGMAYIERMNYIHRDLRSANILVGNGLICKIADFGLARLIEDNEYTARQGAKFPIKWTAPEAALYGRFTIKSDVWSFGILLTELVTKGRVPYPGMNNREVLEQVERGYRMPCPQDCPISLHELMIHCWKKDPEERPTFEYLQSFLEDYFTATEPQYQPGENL

[4] = target: T3, Homeodomain-interacting protein kinase 4 (Homo sapiens) (UniProt Q8NE63); assay: Inhibition of human HIPK4 using myelin basic protein as substrate at 1 uM in presence of 32P-ATP by Hotspot assay relative to control; values are per cent of control
T3 sequence (whole entry): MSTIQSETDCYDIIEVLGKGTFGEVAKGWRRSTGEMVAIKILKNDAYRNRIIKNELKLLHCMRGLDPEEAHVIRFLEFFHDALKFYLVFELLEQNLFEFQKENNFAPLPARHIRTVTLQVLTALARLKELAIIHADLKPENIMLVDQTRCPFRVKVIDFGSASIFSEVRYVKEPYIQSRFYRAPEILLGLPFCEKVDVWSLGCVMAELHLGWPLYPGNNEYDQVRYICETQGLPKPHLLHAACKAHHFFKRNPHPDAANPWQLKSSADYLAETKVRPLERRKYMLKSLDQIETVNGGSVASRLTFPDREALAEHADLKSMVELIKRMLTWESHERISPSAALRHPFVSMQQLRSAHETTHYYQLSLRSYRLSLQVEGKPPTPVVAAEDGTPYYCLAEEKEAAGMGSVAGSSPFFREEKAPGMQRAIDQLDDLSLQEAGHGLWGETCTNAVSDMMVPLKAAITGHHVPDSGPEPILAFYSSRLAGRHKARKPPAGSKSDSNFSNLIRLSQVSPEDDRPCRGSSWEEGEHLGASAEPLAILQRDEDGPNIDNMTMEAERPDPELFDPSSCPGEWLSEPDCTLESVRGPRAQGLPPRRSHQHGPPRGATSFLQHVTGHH

[5] = target: Calcium/calmodulin-dependent protein kinase kinase 2 (Homo sapiens) (UniProt Q96RR4); assay: Inhibition of human CAMKK2 using myelin basic protein as substrate at 1 uM in presence of 32P-ATP by Hotspot assay relative to control; values are per cent of control
Calcium/calmodulin-dependent protein kinase kinase 2 (Homo sapiens), sequence (Q96RR4 2-588 limits assumed): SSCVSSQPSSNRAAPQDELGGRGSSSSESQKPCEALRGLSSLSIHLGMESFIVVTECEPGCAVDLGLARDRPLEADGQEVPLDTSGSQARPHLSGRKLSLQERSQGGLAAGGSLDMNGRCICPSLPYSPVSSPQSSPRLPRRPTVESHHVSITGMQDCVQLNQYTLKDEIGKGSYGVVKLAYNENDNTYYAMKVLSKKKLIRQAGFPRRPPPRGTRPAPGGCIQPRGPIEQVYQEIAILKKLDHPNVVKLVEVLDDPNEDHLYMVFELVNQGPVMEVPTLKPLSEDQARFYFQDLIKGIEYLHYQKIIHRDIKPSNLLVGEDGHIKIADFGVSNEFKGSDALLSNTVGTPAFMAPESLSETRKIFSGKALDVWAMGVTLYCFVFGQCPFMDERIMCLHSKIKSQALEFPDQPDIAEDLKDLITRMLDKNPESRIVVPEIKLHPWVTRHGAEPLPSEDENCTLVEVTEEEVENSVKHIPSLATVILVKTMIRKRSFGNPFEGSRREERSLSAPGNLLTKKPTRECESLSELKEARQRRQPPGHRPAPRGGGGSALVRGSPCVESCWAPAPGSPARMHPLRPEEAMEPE

SMILES | residual activity [1] | residual activity [2] | residual activity [3] | residual activity [4] | residual activity [5]
Cc1cc(-c2cnc(N)c3c(-c4ccc5scnc5c4)csc23)n(C)n1 | 101% | 96.6% | 5.73% | 106% | 87.7%
CC(C)S(=O)(=O)c1ccc2nccc(Nc3ccc4scnc4c3)c2c1 | 101% | 102% | 18% | 93.7% | 92.3%
CNC(=O)c1ccc2c(c1)ncn2-c1ccc(CC(=O)OC(C)(C)C)cc1 | 97.7% | 94.3% | 79.4% | 107% | 87.7%
